Measured values: patent US7238666B2, “Method of inhibiting fibrosis with a somatostatin agonist” (Societe de Conseils de Recherches et d'Applications …, priority 1996, dated 2007)
Positions of bridges follow the written chain, without caps; N, C: chain ends. Non-standard residues stand in square brackets, D forms with d. Residues, ends and D or L forms follow the SMILES beside them.

What was measured:
human SSTR-3 = human SSTR-3 (Homo sapiens, UniProt P32745); assay: Somatostatin receptor binding assay, [125I-Tyr11]somatostatin-14, membranes of transfected CHO-K1 cells; details: 0.05 nM [125I-Tyr11]somatostatin-14, 30 min at 30° C., Ki=IC50/[1+(LC/LEC)], read-out: Ki hSSTR-3
Chain of human SSTR-3 (P32745 whole entry): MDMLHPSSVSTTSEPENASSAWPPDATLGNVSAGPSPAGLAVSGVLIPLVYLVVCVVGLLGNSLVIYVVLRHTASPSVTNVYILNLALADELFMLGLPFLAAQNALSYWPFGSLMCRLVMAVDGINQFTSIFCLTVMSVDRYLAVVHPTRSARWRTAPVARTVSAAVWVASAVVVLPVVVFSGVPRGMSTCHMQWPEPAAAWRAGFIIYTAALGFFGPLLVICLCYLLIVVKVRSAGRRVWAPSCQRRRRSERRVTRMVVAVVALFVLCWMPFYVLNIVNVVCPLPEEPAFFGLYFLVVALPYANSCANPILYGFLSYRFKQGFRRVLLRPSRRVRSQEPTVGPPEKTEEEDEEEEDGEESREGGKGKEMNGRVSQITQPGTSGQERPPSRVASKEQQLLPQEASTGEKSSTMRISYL

human SSTR-5 = human SSTR-5 (Homo sapiens, UniProt P35346); assay: as above; details: 0.05 nM [125I-Tyr11]somatostatin-14, 30 min at 30° C., Ki=IC50/[1+(LC/LEC)], read-out: Ki hSSTR-5
Chain of human SSTR-5 (P35346 whole entry): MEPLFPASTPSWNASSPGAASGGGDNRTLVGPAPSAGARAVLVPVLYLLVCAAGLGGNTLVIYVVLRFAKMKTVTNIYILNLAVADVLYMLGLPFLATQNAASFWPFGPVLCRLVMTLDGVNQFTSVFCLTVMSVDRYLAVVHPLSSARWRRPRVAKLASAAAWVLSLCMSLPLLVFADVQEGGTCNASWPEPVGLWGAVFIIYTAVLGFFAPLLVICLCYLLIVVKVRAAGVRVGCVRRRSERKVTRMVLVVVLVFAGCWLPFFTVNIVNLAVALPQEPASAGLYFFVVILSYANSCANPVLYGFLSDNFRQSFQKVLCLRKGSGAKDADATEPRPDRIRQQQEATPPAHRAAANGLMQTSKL

Ki (human SSTR-3): 0.062 µM | Ki (human SSTR-5): 0.00038 µM
SMILES: C[C@@H](O)[C@@H]1NC(=O)[C@H](CCCCN)NC(=O)[C@@H](Cc2c[nH]c3ccccc23)NC(=O)[C@H](Cc2ccccc2)NC(=O)[C@H](Cc2ccccc2)NC(=O)[C@@H](N)CSSC[C@@H](C(N)=O)NC(=O)[C@H](Cc2ccccc2)NC1=O [BIM-23268, H-Cys-Phe-Phe-D-Trp-Lys-Thr-Phe-Cys-NH2] (H-CFF[dW]KTFC-NH2; disulfide 1-8)
